What was measured:
Chilo suppressalis = assay: Field protocol against Chilo suppressalis in rice; format: in vivo; details: six-step protocol, dosage of 1 to 2 in one thousand from transplantation treasury to before harvest
Source text: In this invention ethaneperoxoic acid used for the first time to fight with Chilo suppressalis with the below mentioned method: • Step 1: The dosage of 1 in one thousand in the transplantation treasury; • Step 2: At the time of transferring the seedlings to the field with the dosage of 1 in one thousand to fight with the first generation; • Step 3: 10 days after transferring the seedlings to the field with the dosage of 1 in one thousand to fight with the second generation; • Step 4: 30 days after transferring the seedlings to the field with the dosage of 1 in one thousand; • Step 5: 45 days after transferring the seedlings to the field with the dosage of 2 in one thousand and 1 in one thousand to fight with the third generation; • Step 6: before harvesting the rice with the dosage of 2 in one thousand.

[1] = tested on: fungus, bacteria and viruses and plant pests in all stages such as eggs, larva, adults; assay: Spray with wetting agent to control plant pathogens and pests; format: in vivo; details: 3 liters (active ingredient at least 20%) plus 500 cc of non-ionic fatty amine compounds in 1000 liters of water
Source text: For longer durability of Ethaneperoxoic acid based compounds, non-ionic fatty amine compounds (wetting agent) should be used in this method for the first time in two different ways, both within the formulation or added separately to the compound. These compounds cause the Ethaneperoxoic acid that is sprayed on the target to increase the duration of exposure of Ethaneperoxoic acid to the chitin surface of insects due to the reduction of surface tension of water droplets.

CC(=O)OO [ethaneperoxoic acid]
damage due to the Chilo suppressalis (Chilo suppressalis): completely control
effect in controlling fungus, bacteria and viruses and plant pests in all stages [1]: significant impressive effect

Reference: US20230345943A1, “METHOD AND PROCESS FOR COMPLETE ELIMINATION OF VARIOUS STEPS OF PEST GROWTH IN PLANTS USING DI[…] BASED ON ETHA[…] AND HYDROGEN PEROXIDE” (priority 2020, published 2023)
